Measurements as given in patent US12077503B2, “Substituted cyclic amides and their use as herbicides” (FMC CORPORATION, priority 2015, dated 2024).
Where two headings read alike, the source gives them in different places.

Assays:
Assay type in all cases: in vivo
[1] = system: Kochia (Kochia scoparia); experiment: Test A preemergence; conditions: Bassia scoparia, pre-emergence, 240 h; for pest or weed control at 125 g/ha: 125 g ai/ha; for pest or weed control at 500 g/ha: 500 g ai/ha
In short: (§1)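 In a loam soil and sand blend, planted seeds got a preemergence directed soil spray, and young plants at the one- to two-leaf stage, 2–10 cm high, got a postemergence application; ~10 d greenhouse hold; injury rated visually, 0 = none, 100 = complete control.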

[2] = system: barnyardgrass (Echinochloa crus-galli); experiment: Test A preemergence; conditions: Echinochloa crus-galli, pre-emergence, 240 h; for pest or weed control at 125 g/ha: 125 g ai/ha; for pest or weed control at 500 g/ha: 500 g ai/ha
In short: as §1

[3] = system: pigweed (Amaranthus retroflexus); experiment: Test A preemergence; conditions: Amaranthus retroflexus, pre-emergence, 240 h; for pest or weed control at 125 g/ha: 125 g ai/ha; for pest or weed control at 500 g/ha: 500 g ai/ha
[4] = system: ragweed (common ragweed, Ambrosia elatior); experiment: Test A preemergence; conditions: Ambrosia artemisiifolia, pre-emergence, 240 h; for pest or weed control at 125 g/ha: 125 g ai/ha; for pest or weed control at 500 g/ha: 500 g ai/ha
In short: as §1

[5] = system: ryegrass, Italian (Italian ryegrass, Lolium multiflorum); experiment: Test A preemergence; conditions: Lolium multiflorum, pre-emergence, 240 h; for pest or weed control at 125 g/ha: 125 g ai/ha; for pest or weed control at 500 g/ha: 500 g ai/ha
In short: as §1

[6] = system: Galium (catchweed bedstraw, Galium aparine); experiment: Test A postemergence; conditions: Galium, post-emergence, 240 h, 125 g ai/ha
In short: as §1

[7] = system: Kochia (Kochia scoparia); experiment: Test A postemergence; conditions: Bassia scoparia, post-emergence, 240 h, 125 g ai/ha
In short: as §1

[8] = system: barnyardgrass (Echinochloa crus-galli); experiment: Test A postemergence; conditions: Echinochloa crus-galli, post-emergence, 240 h, 125 g ai/ha, postemergence, visual injury rating after approximately 10 d; read-out: Barnyardgrass plant response rating (0 to 100 scale, 0 no effect, 100 complete control)
In short: as §1

[9] = system: blackgrass (Alopecurus myosuroides); experiment: Test A postemergence; conditions: Alopecurus myosuroides, post-emergence, 240 h, 125 g ai/ha
In short: as §1

[10] = system: corn (Zea mays); experiment: Test A postemergence; conditions: Zea mays, post-emergence, 240 h, 125 g ai/ha; for Corn plant response rating (crop injury, 0 = no effect, 100 = complete kill) at 125 g/ha: Postemergence, visual injury after approximately 10 d, 0 to 100 scale where 0 is no effect and 100 is complete control
In short: as §1

[11] = system: giant foxtail (Setaria faberii); experiment: Test A postemergence; conditions: Setaria faberi, post-emergence, 240 h, 125 g ai/ha
In short: as §1

[12] = system: pigweed (Amaranthus retroflexus); experiment: Test A postemergence; conditions: Amaranthus retroflexus, post-emergence, 240 h, 125 g ai/ha
In short: as §1

[13] = system: ragweed (common ragweed, Ambrosia elatior); experiment: Test A postemergence; conditions: Ambrosia artemisiifolia, post-emergence, 240 h, 125 g ai/ha
In short: as §1

[14] = system: ryegrass, Italian (Italian ryegrass, Lolium multiflorum); experiment: Test A postemergence; conditions: Lolium multiflorum, post-emergence, 240 h, 125 g ai/ha
In short: as §1

[15] = system: wheat (Triticum aestivum); experiment: Test A postemergence; conditions: Triticum aestivum, post-emergence, 240 h, 125 g ai/ha
In short: as §1

[16] = Preemergence, visual injury rating after approximately 10 d, read-out: Kochia plant response rating (0 to 100 scale, 0 is no effect, 100 is complete control)
[17] = preemergence, visual injury rating about 10 d after treatment, 0 to 100 scale (0 no effect, 100 complete control), read-out: Kochia plant response rating
[18] = Preemergence, visual injury rating after approximately 10 d, read-out: Barnyardgrass plant response rating (0 to 100 scale, 0 is no effect, 100 is complete control)
[19] = preemergence, visual injury rating about 10 d after treatment, 0 to 100 scale (0 no effect, 100 complete control), read-out: Barnyardgrass plant response rating
[20] = Preemergence, visual injury rating after approximately 10 d, read-out: Pigweed plant response rating (0 to 100 scale, 0 is no effect, 100 is complete control)
[21] = preemergence, visual injury rating about 10 d after treatment, 0 to 100 scale (0 no effect, 100 complete control), read-out: Pigweed plant response rating
[22] = Preemergence, visual injury rating after approximately 10 d, read-out: Ragweed plant response rating (0 to 100 scale, 0 is no effect, 100 is complete control)
[23] = preemergence, visual injury rating about 10 d after treatment, 0 to 100 scale (0 no effect, 100 complete control), read-out: Ragweed plant response rating
[24] = Preemergence, visual injury rating after approximately 10 d, read-out: Ryegrass, Italian plant response rating (0 to 100 scale, 0 is no effect, 100 is complete control)
[25] = preemergence, visual injury rating about 10 d after treatment, 0 to 100 scale (0 no effect, 100 complete control), read-out: Ryegrass, Italian plant response rating
[26] = Postemergence, visual injury after approximately 10 d, 0 to 100 scale where 0 is no effect and 100 is complete control, read-out: Plant response rating, Galium
[27] = Postemergence, visual injury after approximately 10 d, 0 to 100 scale where 0 is no effect and 100 is complete control, read-out: Plant response rating, Kochia
[28] = Postemergence, visual injury after approximately 10 d, 0 to 100 scale where 0 is no effect and 100 is complete control, read-out: Plant response rating, Blackgrass
[29] = Postemergence, visual injury after approximately 10 d, 0 to 100 scale where 0 is no effect and 100 is complete control, read-out: Plant response rating, Foxtail, Giant
[30] = Postemergence, visual injury after approximately 10 d, 0 to 100 scale where 0 is no effect and 100 is complete control, read-out: Plant response rating, Pigweed
[31] = Postemergence, visual injury after approximately 10 d, 0 to 100 scale where 0 is no effect and 100 is complete control, read-out: Plant response rating, Ragweed
[32] = Postemergence, visual injury after approximately 10 d, 0 to 100 scale where 0 is no effect and 100 is complete control, read-out: Plant response rating, Ryegrass, Italian
[33] = Postemergence, visual injury after approximately 10 d, 0 to 100 scale where 0 is no effect and 100 is complete control, read-out: Plant response rating, Wheat

Work on `CN1C[C@H](c2cc(F)cc(F)c2)[C@@H](C(=O)Nc2ccc(C(F)(F)F)nc2)C1=O` [Compound 870] yielded a pest or weed control at 125 g/ha ([1]; preemergence, 0 to 100 scale where 0 is no effect and 100 is complete control, read-out: Kochia plant response rating) of 0%, a pest or weed control at 500 g/ha ([1]; Preemergence, visual injury vs untreated controls after approximately 10 d, read-out: Kochia plant response rating (0 to 100 scale where 0 is no effect and 100 is complete control)) of 0% and a pest or weed control at 125 g/ha ([2]; preemergence, 0 to 100 scale where 0 is no effect and 100 is complete control, read-out: Barnyardgrass plant response rating) of 50%. The pest or weed control at 500 g/ha ([2]; Preemergence, visual injury vs untreated controls after approximately 10 d, read-out: Barnyardgrass plant response rating (0 to 100 scale where 0 is no effect and 100 is complete control)) was 80%, the pest or weed control at 125 g/ha ([3]; preemergence, 0 to 100 scale where 0 is no effect and 100 is complete control, read-out: Pigweed plant response rating) was 0% and the pest or weed control at 500 g/ha ([3]; Preemergence, visual injury vs untreated controls after approximately 10 d, read-out: Pigweed plant response rating (0 to 100 scale where 0 is no effect and 100 is complete control)) was 0%. For the same molecule, the pest or weed control at 125 g/ha ([4]; preemergence, 0 to 100 scale where 0 is no effect and 100 is complete control, read-out: Ragweed plant response rating) was 0%, the pest or weed control at 500 g/ha ([4]; Preemergence, visual injury vs untreated controls after approximately 10 d, read-out: Ragweed plant response rating (0 to 100 scale where 0 is no effect and 100 is complete control)) was 0% and the pest or weed control at 125 g/ha ([5]; preemergence, 0 to 100 scale where 0 is no effect and 100 is complete control, read-out: Ryegrass, Italian plant response rating) was 0%. The pest or weed control at 500 g/ha ([5]; Preemergence, visual injury vs untreated controls after approximately 10 d, read-out: Ryegrass, Italian plant response rating (0 to 100 scale where 0 is no effect and 100 is complete control)) was 0%, the pest or weed control at 125 g/ha ([6]; postemergence, visual injury rating after approximately 10 d, read-out: Galium plant response rating (0 to 100 scale, 0 no effect, 100 complete control)) was 0% and the pest or weed control at 125 g/ha ([7]; postemergence, visual injury rating after approximately 10 d, read-out: Kochia plant response rating (0 to 100 scale, 0 no effect, 100 complete control)) was 0%. The pest or weed control at 125 g/ha [8] was 0%, the pest or weed control at 125 g/ha ([9]; postemergence, visual injury rating after approximately 10 d, read-out: Blackgrass plant response rating (0 to 100 scale, 0 no effect, 100 complete control)) was 0% and the plant injury at 125 g/ha ([10]; postemergence, visual injury rating after approximately 10 d, read-out: Corn plant response rating (0 to 100 scale, 0 no effect, 100 complete control)) was 0%. It also gave a pest or weed control at 125 g/ha ([11]; postemergence, visual injury rating after approximately 10 d, read-out: Foxtail, Giant plant response rating (0 to 100 scale, 0 no effect, 100 complete control)) of 0%, a pest or weed control at 125 g/ha ([12]; postemergence, visual injury rating after approximately 10 d, read-out: Pigweed plant response rating (0 to 100 scale, 0 no effect, 100 complete control)) of 0% and a pest or weed control at 125 g/ha ([13]; postemergence, visual injury rating after approximately 10 d, read-out: Ragweed plant response rating (0 to 100 scale, 0 no effect, 100 complete control)) of 0%. It also gave a pest or weed control at 125 g/ha ([14]; postemergence, visual injury rating after approximately 10 d, read-out: Ryegrass, Italian plant response rating (0 to 100 scale, 0 no effect, 100 complete control)) of 0% and a plant injury at 125 g/ha ([15]; postemergence, visual injury rating after approximately 10 d, read-out: Wheat plant response rating (0 to 100 scale, 0 no effect, 100 complete control)) of 0%.
For `CN1C[C@H](c2cc(F)cc(Cl)c2)[C@@H](C(=O)Nc2ccccc2S(C)(=O)=O)C1=O` [Compound 979], the pest or weed control at 125 g/ha [1, 16] was 50%, the pest or weed control at 500 g/ha [1, 17] was 90% and the pest or weed control at 125 g/ha [2, 18] was 90%. It also gave a pest or weed control at 500 g/ha [2, 19] of 90%, a pest or weed control at 125 g/ha [3, 20] of 40% and a pest or weed control at 500 g/ha [3, 21] of 90%. The pest or weed control at 125 g/ha [4, 22] was 50%, the pest or weed control at 500 g/ha [4, 23] was 90% and the pest or weed control at 125 g/ha [5, 24] was 50%. It also gave a pest or weed control at 500 g/ha [5, 25] of 60%, a pest or weed control at 125 g/ha [6, 26] of 40% and a pest or weed control at 125 g/ha [7, 27] of 30%. For the same molecule, the pest or weed control at 125 g/ha [9, 28] was 60%, the Corn plant response rating (crop injury, 0 = no effect, 100 = complete kill) at 125 g/ha [10] was 30% and the pest or weed control at 125 g/ha [11, 29] was 90%. The pest or weed control at 125 g/ha [12, 30] was 40%, the pest or weed control at 125 g/ha [13, 31] was 20% and the pest or weed control at 125 g/ha [14, 32] was 20%. For the same molecule, the plant injury at 125 g/ha [15, 33] was 50%.
`CSc1ccccc1NC(=O)[C@H]1C(=O)NC[C@@H]1c1cc(F)cc(Cl)c1` [Compound 977] showed a pest or weed control at 125 g/ha [1, 16] of 90%, a pest or weed control at 500 g/ha [1, 17] of 90% and a pest or weed control at 125 g/ha [2, 18] of 90%. It also gave a pest or weed control at 500 g/ha [2, 19] of 90%, a pest or weed control at 125 g/ha [3, 20] of 40% and a pest or weed control at 500 g/ha [3, 21] of 70%. The pest or weed control at 125 g/ha [4, 22] was 70%, the pest or weed control at 500 g/ha [4, 23] was 100% and the pest or weed control at 125 g/ha [5, 24] was 0%. The pest or weed control at 500 g/ha [5, 25] was 40%, the pest or weed control at 125 g/ha [6, 26] was 40% and the pest or weed control at 125 g/ha [7, 27] was 70%. It also gave a pest or weed control at 125 g/ha [9, 28] of 0%, a Corn plant response rating (crop injury, 0 = no effect, 100 = complete kill) at 125 g/ha [10] of 0% and a pest or weed control at 125 g/ha [11, 29] of 90%. For the same molecule, the pest or weed control at 125 g/ha [12, 30] was 30%, the pest or weed control at 125 g/ha [13, 31] was 20% and the pest or weed control at 125 g/ha [14, 32] was 0%. It also gave a plant injury at 125 g/ha [15, 33] of 0%.
